Experimental data as given in paper PMC10458862, “Binding Specificity of a Novel Cyclo/Maltodextrin-Binding Protein and Its Role in the Cyclodextrin ABC Importer System from Thermoanaerobacterales” (Molecules, 2023).
Like-named read-outs stand apart in the source and are kept apart here. Marks after values point to notes of the source that are not given here.

What was measured:
MdxE [1] = target: T1, MdxE (Thermoanaerobacter mathranii subsp. mathranii, UniProt A0ABM5LRQ5); assay: ITC measurements of MdxE-ligand binding; parameters: species or system Thermoanaerobacter mathranii subsp. mathranii A3
T1 sequence (A0ABM5LRQ5 entry or part of it): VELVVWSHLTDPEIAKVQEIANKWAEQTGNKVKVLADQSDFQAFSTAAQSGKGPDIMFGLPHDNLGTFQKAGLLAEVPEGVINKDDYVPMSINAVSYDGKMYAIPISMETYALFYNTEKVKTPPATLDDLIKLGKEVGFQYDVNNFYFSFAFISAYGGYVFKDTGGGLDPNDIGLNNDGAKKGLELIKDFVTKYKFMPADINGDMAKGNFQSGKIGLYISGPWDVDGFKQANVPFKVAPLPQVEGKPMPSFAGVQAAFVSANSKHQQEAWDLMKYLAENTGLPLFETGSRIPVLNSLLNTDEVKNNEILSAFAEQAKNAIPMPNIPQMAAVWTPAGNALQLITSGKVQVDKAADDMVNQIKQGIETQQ
Protocol: To assess the binding affinities of MdxE toward different linear dextrins and CDs for the CM-CD pathway, functional experiments of MdxE-ligand complex formation were performed using isothermal titration calorimetry (ITC) to determine the dissociation constant (Kd) and enthalpy (ΔH) for ligand binding, as well as the Gibbs free energy (ΔG) contribution to the binding (Figure 3).
Purified MdxE at 4 μM was titrated with 0.8 mM CDs and linear dextrins using a VP-ITC calorimeter (Cytiva) at 55 °C. In all measurements, the sample cell and syringe were filled with protein and ligand solution, respectively, and the reference cell was filled with ultrapure water. The stirring speed of the sample syringe during measurements was 250 rpm. After baseline stabilization and an initial injection of 2 µL, 25 successive injections of 11 µL were carried out with a 5 min equilibration period between injections. Since both protein and ligands were in buffer C, the heat of dilution was neglected in the experiments. The resulting data were analyzed in triplicate (n = 3) using the Origin 7 ITC analysis v7.0 software from Microcal by fitting the titration curves to a single binding site model.

MdxE [2] = target: T1, MdxE; assay: ANS fluorescence determination of protein surface hydrophobicity (Ho) of MdxE-ligand complexes; parameters: species or system Thermoanaerobacter mathranii subsp. mathranii A3; conditions: for Ho (protein surface hydrophobicity, slope of RFU versus MdxE concentration): MdxE 2–14 µM, 350 µM ligand, 20 µM ANS, λmax = 485 nm, letters = Tukey groups (p < 0.05)
Protocol: To evaluate the switching from an open to a closed form of productive MdxE-ligand complexes obtained with the sugars listed in Table 1, changes in the protein surface hydrophobicity (Ho) of MdxE-ligand complexes using the fluorescent probe 8-anilinonaphthalene-1-sulfonate (ANS) were determined (Figure 4).
The changes in H0 associated with the open-to-closed conformational changes of productive MdxE-ligand complexes were determined based on the method described previously, using a Nanodrop ND-3300 fluorospectrometer (Thermo Fisher, Waltham, MA, USA) controlled by ND-3300 v2.8.0 software with ANS as a fluorescence probe at an excitation wavelength of 365 nm and 400–600 nm as the range for emission scan. The fluorescent response was measured in RFU using buffer C for all solutions. […] For H0 measurements, MdxE-ligand complexes were heated at 55 °C for 10 min. Subsequently, ANS was added to form the (MdxE-ligand)-ANS complexes, and the solutions were heated again at 55 °C for 3 min; then, the solutions were cooled to room temperature. Data were analyzed in triplicate (n = 3), and H0 was estimated as the slope of the linear curve fitted for RFU versus MdxE concentrations plotted at the maximum emission wavelength (λ = 485 nm) using the emtrends() function from emmeans package in R [58, 59]. A Tukey’s test (α = 0.05) for multiple comparisons was performed to determine significant differences in H0 between CDs and linear dextrins tested. All fluorescence measurements were made at 22 °C.

TvuCMBP = target: TvuCMBP; parameters: method as in PMID 17371546; conditions: ND = not detected; cited from earlier work
EcoMBP = conditions: cited from earlier work
CymE = target: CymE; parameters: method as in PMID 9573146; conditions: ND = not detected; cited from earlier work
AcyMBP = target: AcyMBP; parameters: method as in PMID 11053372; conditions: cited from earlier work
[3] = ITC, 55 °C, 4 μM MdxE titrated with 0.8 mM ligand, single binding site model, n = 3, ND = not detected, read-out: Kd MdxE

Work on maltohexaose [G6] yielded a Kd (MdxE [1]; [3]) of 1850 nM, a ΔG (MdxE [1]; ITC, 55 °C, ND = not detected) of -8.61 kcal/mol and a ΔH (MdxE [1]; ITC, 55 °C, ND = not detected) of -12.98 kcal/mol. For the same molecule, the “Ho (protein surface hydrophobicity, slope of RFU versus MdxE concentration)” value (MdxE [2]) was 26.8 ^c.
In the case of `OC[C@H]1O[C@@H]2O[C@H]3[C@H](O)[C@@H](O)[C@@H](O[C@H]4[C@H](O)[C@@H](O)[C@@H](O[C@H]5[C@H](O)[C@@H](O)[C@@H](O[C@H]6[C@H](O)[C@@H](O)[C@@H](O[C@H]7[C@H](O)[C@@H](O)[C@@H](O[C@H]8[C@H](O)[C@@H](O)[C@@H](O[C@H]1[C@H](O)[C@H]2O)O[C@@H]8CO)O[C@@H]7CO)O[C@@H]6CO)O[C@@H]5CO)O[C@@H]4CO)O[C@@H]3CO` [β-CD], the Kd (MdxE [1]; [3]) is reported as 2040 nM, the ΔH (MdxE [1]; ITC, 55 °C, ND = not detected) is reported as -5.28 kcal/mol and the “Ho (protein surface hydrophobicity, slope of RFU versus MdxE concentration)” value (MdxE [2]) is reported as 41.8 ^b. The “open-to-closed conformational change of MdxE” value (MdxE [2]; fluorescence analysis with ANS) was “solely triggered”, the Kd (TvuCMBP) was 1200 nM and the Kd (EcoMBP) was 1000 nM. The Kd (CymE) was 140 nM.
maltoheptaose [G7] gave a Kd (MdxE [1]; [3]) of 910 nM, a ΔG (MdxE [1]; ITC, 55 °C, ND = not detected) of -9.09 kcal/mol and a ΔH (MdxE [1]; ITC, 55 °C, ND = not detected) of -11.54 kcal/mol. For the same molecule, the “Ho (protein surface hydrophobicity, slope of RFU versus MdxE concentration)” value (MdxE [2]) was 27.1 ^c and the Kd (CymE) was 70000 nM.
With `OC[C@H]1O[C@@H]2O[C@H]3[C@H](O)[C@@H](O)[C@@H](O[C@H]4[C@H](O)[C@@H](O)[C@@H](O[C@H]5[C@H](O)[C@@H](O)[C@@H](O[C@H]6[C@H](O)[C@@H](O)[C@@H](O[C@H]7[C@H](O)[C@@H](O)[C@@H](O[C@H]1[C@H](O)[C@H]2O)O[C@@H]7CO)O[C@@H]6CO)O[C@@H]5CO)O[C@@H]4CO)O[C@@H]3CO` [α-CD] the Kd (MdxE [1]) was 610 nM, the ΔH (MdxE [1]; ITC, 55 °C, ND = not detected) was -6.83 kcal/mol and the “Ho (protein surface hydrophobicity, slope of RFU versus MdxE concentration)” value (MdxE [2]) was 37.1 ^a. For the same molecule, the “open-to-closed conformational change of MdxE” value (MdxE [2]; fluorescence analysis with ANS) was “solely triggered”, the Kd (TvuCMBP) was 730 nM and the Kd (CymE) was 20 nM.
Work on `OC[C@H]1O[C@H](O[C@H]2[C@H](O)[C@@H](O)[C@@H](O[C@H]3[C@H](O)[C@@H](O)C(O)O[C@@H]3CO)O[C@@H]2CO)[C@H](O)[C@@H](O)[C@@H]1O` (mixture of isomers) [G3, maltotriose] yielded a Kd (MdxE [1]; [3]) of 3020 nM, a ΔG (MdxE [1]; ITC, 55 °C, ND = not detected) of -8.50 kcal/mol and a ΔH (MdxE [1]; ITC, 55 °C, ND = not detected) of -8.64 kcal/mol. The “Ho (protein surface hydrophobicity, slope of RFU versus MdxE concentration)” value (MdxE [2]) was 24.3 ^c, the Kd (TvuCMBP) was 970 nM and the Kd (EcoMBP) was 200 nM.
For `OC[C@H]1O[C@@H]2O[C@H]3[C@H](O)[C@@H](O)[C@@H](O[C@H]4[C@H](O)[C@@H](O)[C@@H](O[C@H]5[C@H](O)[C@@H](O)[C@@H](O[C@H]6[C@H](O)[C@@H](O)[C@@H](O[C@H]7[C@H](O)[C@@H](O)[C@@H](O[C@H]8[C@H](O)[C@@H](O)[C@@H](O[C@H]9[C@H](O)[C@@H](O)[C@@H](O[C@H]1[C@H](O)[C@H]2O)O[C@@H]9CO)O[C@@H]8CO)O[C@@H]7CO)O[C@@H]6CO)O[C@@H]5CO)O[C@@H]4CO)O[C@@H]3CO` [γ-CD], the Kd (MdxE [1]; [3]) was 1510 nM, the ΔH (MdxE [1]; ITC, 55 °C, ND = not detected) was -6.50 kcal/mol and the “Ho (protein surface hydrophobicity, slope of RFU versus MdxE concentration)” value (MdxE [2]) was 24.5 ^c. The Kd (TvuCMBP) was 230 nM and the Kd (CymE) was 300 nM.
With `OC[C@H]1O[C@H](O[C@H]2[C@H](O)[C@@H](O)C(O)O[C@@H]2CO)[C@H](O)[C@@H](O)[C@@H]1O` (mixture of isomers) [G2, maltose] the “Kd MdxE” value (MdxE [1]; ITC, 55 °C, 4 μM MdxE titrated with 0.8 mM ligand, single binding site model, n = 3, ND = not detected) was “no binding interaction was observed”, the “Ho (protein surface hydrophobicity, slope of RFU versus MdxE concentration)” value (MdxE [2]) was 15.1 ^d and the “MdxE-ligand complex formation by fluorescence measurements” value (MdxE [2]; fluorescence analysis with ANS) was “no MdxE-G2 complex formation was observed”. The Kd (TvuCMBP) was 410 nM, the Kd (AcyMBP) was 1500 nM and the Kd (EcoMBP) was 1000 nM.
With maltopentaose [G5] the Kd (MdxE [1]; [3]) was 2440 nM, the ΔG (MdxE [1]; ITC, 55 °C, ND = not detected) was -8.30 kcal/mol and the ΔH (MdxE [1]; ITC, 55 °C, ND = not detected) was -13.94 kcal/mol. The “Ho (protein surface hydrophobicity, slope of RFU versus MdxE concentration)” value (MdxE [2]) was 27.3 ^c and the Kd (TvuCMBP) was 200 nM.
